# Experimental data from US7439350B2, “Nucleotide analogs” (Gilead Sciences, Inc., priority 1993, dated 2008).
# pEC50, pIC50: −log10 of the molar value. “Also recorded” adds a separate entry of the source. Read-outs that look alike come from different tables or passages of the source.
# Experiments:
# [1] = system: herpes simplex virus, type-1 and 2 (HSV-1 and -2); conditions: cited from earlier work
# adenovirus = conditions: cited from earlier work
# vaccinia virus = conditions: cited from earlier work
# [2] = system: herpes simplex virus type 1; conditions: mice and rabbits in vivo, including herpetic keratitis caused by a TK- mutant; cited from earlier work
# [3] = system: intraperitoneal P388 leukemia; conditions: murine tumor model; cited from earlier work
# [4] = system: varicella zoster virus (VZV); conditions: cited from earlier work
# [5] = system: broad-spectrum of DNA viruses; conditions: HSV-1 and 2, VZV, TK- HSV, HCMV, SeHV, SHV-1, BHV-1, EHV-1, ASF virus, vaccinia virus, adenoviruses, MSV; cited from earlier work
# HSV-2 (strain 414-92) = test: Antiviral activity against HSV-2 (strain 414-92) in MA 104 cells, crystal violet readout; type: cell-based; conditions: HSV-2 strain 414-92, MA 104 cells, three days; concentration that inhibits virus-mediated cell killing by 50%
# Protocol: Compounds were individually tested for activity against HSV-1 and/or HSV-2. HSV-2 (strain 414-92) was tested using MA 104 cells in the following assay protocol. 96-Well plates were seeded with 1×10^4 MA 104 cells per well using 200 μL minimal essential medium (MEM) containing 10% calf serum per well, and incubated overnight at 37° C. The compounds were dissolved in MEM Earle's Salts without serum. The medium was removed by-aspiration and 100 μL MEM Earle's Salts without serum was added to the wells. Serial 3-fold dilutions of the compounds were prepared by serial transfer of 50 μL of medium from wells containing compound to wells lacking compound. The plates were incubated 15 minutes at 37° C. followed by addition of 100 PFU/well of virus in MEM Earle's Salts with 2% fetal bovine serum. The plates were then incubated at 37° C. for three days until approximately 90% of the cells in virus infected control wells containing no compound were killed. Following incubation, medium was aspirated and the wells were washed with sterile PBS. 100 μL 0.5% crystal violet in 20% methanol was then added to the wells for 5 minutes, aspirated and the wells were washed two or three times with distilled water. 200 μL of 0.01 N HCl was added to the wells and the absorbance of each well at 595 nm was determined. The results, shown in Table 6, were expressed as the IC50, the concentration (μM) that inhibits cell killing mediated by HSV-2 by 50%. […] The toxicity of the compounds were expressed as the CC50, the concentration that kills 50% of uninfected cells.
# [6] = system: uninfected cells (MA 104 cells); test: Toxicity of the compounds to uninfected cells (CC50); type: cell-based; conditions: concentration that kills 50% of uninfected cells
# Protocol: Compounds were individually tested for activity against HSV-1 and/or HSV-2. HSV-2 (strain 414-92) was tested using MA 104 cells in the following assay protocol. 96-Well plates were seeded with 1×10^4 MA 104 cells per well using 200 μL minimal essential medium (MEM) containing 10% calf serum per well, and incubated overnight at 37° C. The compounds were dissolved in MEM Earle's Salts without serum. The medium was removed by-aspiration and 100 μL MEM Earle's Salts without serum was added to the wells. Serial 3-fold dilutions of the compounds were prepared by serial transfer of 50 μL of medium from wells containing compound to wells lacking compound. The plates were incubated 15 minutes at 37° C. followed by addition of 100 PFU/well of virus in MEM Earle's Salts with 2% fetal bovine serum. The plates were then incubated at 37° C. for three days until approximately 90% of the cells in virus infected control wells containing no compound were killed. Following incubation, medium was aspirated and the wells were washed with sterile PBS. 100 μL 0.5% crystal violet in 20% methanol was then added to the wells for 5 minutes, aspirated and the wells were washed two or three times with distilled water. 200 μL of 0.01 N HCl was added to the wells and the absorbance of each well at 595 nm was determined. […]
# HCMV = test: Activity against HCMV in tissue culture (NHDF cell line); type: cell-based
# Excerpt: The title compound was synthesized using N^4-benzoyl HPMPC diethyl ester tritylated at the hydroxyl group as a starting material. The starting material was detritylated using acetic acid and then converted to N^4-benzoyl HPMPC using TMSBr. The resulting compound was converted to N^4-benzoyl cHPMPC using DCC and morpholine in pyridine.
# [7] = system: human cytomegalovirus (HCMV); conditions: cited from earlier work
# [8] = system: murine cytomegalovirus (MCMV); conditions: cited from earlier work
# MA 104 cells = test: CC50 in the HSV II / MA 104 XTT assay; type: cell-based
# HSV II = test: Inhibition of cytopathic effects by HSV II in MA 104 cells, XTT readout; type: cell-based; conditions: CPE determined with XTT
# R-MuLV = conditions: treatment of R-MuLV in mice; cited from earlier work
# [9] = system: human immunodeficiency virus (HIV); conditions: cited from earlier work
# [10] = system: Rauscher murine leukemia virus (R-MuLV); conditions: in vitro; cited from earlier work
# KOS strain of HSV-1 = test: Antiviral activity against KOS strain of HSV-1 in VERO cells; type: cell-based; conditions: KOS strain of HSV-1, VERO cells; concentration that inhibits virus-mediated cell killing by 50%
# herpes viruses = conditions: in vitro; cited from earlier work
# HSV 1 = conditions: in vivo, HSV 1 infection in mice; cited from earlier work
# B16 melanoma = conditions: murine tumor model; cited from earlier work
# [11] = Oral bioavailability in monkeys
# [12] = Incubation in rat intestinal wash; type: in vitro ADME; conditions: both phosphorus isomers
# Excerpt: (§1) The cHFMPC pivaloyloxymethyl ester synthesis yields a scalemic mixture at the phosphorus atom. The mixture was separated by HIPLC into the two isomers which were then exposed to an rat intestinal homogenate or to a rat intestinal wash.
# [13] = Incubation in rat intestinal homogenate; type: in vitro ADME; conditions: two phosphorus isomers separated by HPLC (one isomer / the other isomer)
# Excerpt: as §1
compound,measurement,setting,value
Nc1nc2c(ncn2C[C@@H](CO)OCP(=O)(O)O)c(=O)[nH]1 [(S)-HFMPG],activity against HSV-1 and -2,[1],active
Nc1ncnc2c1ncn2C[C@@H](CO)OCP(=O)(O)O [(S)-HPMPA],activity against HSV-1 and -2,[1],active
same,activity against adenovirus,adenovirus,active
same,activity against vaccinia virus,vaccinia virus,active
same,efficacy against local and systemic HSV-1 infections,[2],effective
same,antitumor activity against P388 leukemia,[3],active
same,activity against VZV,[4],active
same,activity against a broad-spectrum of DNA viruses,[5],potent and selective activity
Nc1nc(N)c2ncn(C[C@@H](CO)OCP(=O)(O)O)c2n1 [(S)-HPMPDAP],activity against HSV-1 and -2,[1],active
Nc1ncnc2c1ncn2C[C@H]1COP(=O)(O)CO1 [(S)-cyclic HPMPA],activity against HSV-1 and -2,[1],active
same,activity against adenovirus,adenovirus,active
same,activity against vaccinia virus,vaccinia virus,active
same,activity against VZV,[4],active
"CC(NP(=O)(COCCn1cnc2c(N)ncnc21)NC(C)C(=O)OCc1ccccc1)C(=O)OCc1ccccc1 (stereo not drawn) [Ex 1, bis(alanyl benzyl ester)PMEA]",pIC50,HSV-2 (strain 414-92),4.70
same,CC50,[6],> 100 µM
"Nc1ncnc2c1ncn2CCOCP(=O)(NCC(=O)OCc1ccccc1)NCC(=O)OCc1ccccc1 [Ex 4, bis(glycyl benzyl ester)PMEA]",pIC50,HSV-2 (strain 414-92),4.22
same,CC50,[6],> 100 µM
"Nc1ccn(CC(CO)OCP(=O)(O)O)c(=O)n1 (stereo not drawn) [HPMPC, 1-(2-phosphonomethoxy-3-hydroxypropyl)-cytosine]",activity against HSV-1 and -2,[1],active
same,pIC50,HCMV; Human betaherpesvirus 5,6.40
same,activity against HCMV,[7],active
O=C(Nc1ccn(C[C@H]2COP(=O)(O)CO2)c(=O)n1)c1ccccc1 [N^4-benzoyl cHPMPC],pIC50,HCMV,4.66
"Nc1ncnc2c1ncn2CCOCP(=O)(O)O [PMEA, 9-(2-phosphonylmethoxyethyl)adenine]",antiviral effect in vivo against MCMV,[8],significant antiviral effect
same,activity against HSV-1 and -2,[1],active
same,CC50,"MA 104 cells; MA 104 cells, XTT assay of Example 4, read-out: CC50",2000 µM
same,pIC50,HSV-2 (strain 414-92),4.68
same,pIC50,HSV II,4.71
same,activity against HCMV,[7],activity
same,potency in vivo compared with AZT,R-MuLV,more potent
same,activity against HIV,[9],active
same,antitumor activity against P388 leukemia,[3],active
same,activity against R-MuLV,[10],active
same,pEC50,KOS strain of HSV-1,3.86
Nc1nc(N)c2ncn(CCOCP(=O)(O)O)c2n1 [PMEDAP],activity against HSV-1 and -2,[1],active
same,activity against HIV,[9],active
Nc1nc2c(ncn2CCOCP(=O)(O)O)c(=O)[nH]1 [PMEG],activity against HSV-1 and -2,[1],active
same,activity against herpes viruses,herpes viruses,active
same,potency relative to acyclovir,HSV 1,> 50 fold
same,antitumor activity against B16 melanoma,B16 melanoma,active
same,antitumor activity against P388 leukemia,[3],active
Nc1ncc2ncn(CCOCP(=O)(O)O)c2n1 [PMEMAP],activity against HIV,[9],active
"CC(C)(C)C(=O)OCOP(=O)(COCCn1cnc2c(N)ncnc21)OCOC(=O)C(C)(C)C [bis(POM)PMEA, bis(pivaloyloxymethyl)-9-(2-phosphonylmethoxyethyl)adenine]",CC50,MA 104 cells,> 10 µM
same,pIC50,HSV II,6.30
same,oral bioavailability,[11],about 25%
CC(C)(C)C(=O)OCOP1(=O)CO[C@@H](Cn2ccc(N)nc2=O)CO1 (stereo partly drawn) [cHFMPC pivaloyloxymethyl ester],metabolic fate after incubation in intestinal wash,[12],converted to HPMPC pivaloyloxymethyl monoester
same,metabolic fate after incubation in intestinal homogenate,[13],converted to cHPMPC; also recorded: converted to HPMPC pivaloyloxymethyl monoester
